Experimental data published in ChEMBL document CHEMBL5665443, “Enzyme Inhibitor Single Concentration assay results for EUbOPEN Chemogenomics Library” (2024).

What was measured:
[1] = target: T1, Endonuclease 8-like 2 (Homo sapiens) (UniProt Q969S2); settings: Hit No;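 further: fluorescence at 594 nm reports NEIL2 cutting and release of a quenched double-stranded DNA oligo substrate, reduced signal read as inhibition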
T1 sequence (whole entry): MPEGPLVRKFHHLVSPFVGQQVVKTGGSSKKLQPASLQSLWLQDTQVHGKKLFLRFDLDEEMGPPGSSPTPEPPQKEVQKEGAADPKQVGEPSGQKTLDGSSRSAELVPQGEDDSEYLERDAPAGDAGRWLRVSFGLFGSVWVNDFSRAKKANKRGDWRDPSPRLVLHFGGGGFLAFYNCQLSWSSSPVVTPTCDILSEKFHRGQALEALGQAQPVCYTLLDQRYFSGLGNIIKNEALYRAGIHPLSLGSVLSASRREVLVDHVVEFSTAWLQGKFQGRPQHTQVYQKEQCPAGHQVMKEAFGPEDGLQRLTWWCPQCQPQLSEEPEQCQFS
Description: Inhibition of NEIL2 by quantifying inhibition of NEIL2-mediated cleavage and dissociation of quenched duplex DNA oligonucleotides, measured as fluorescence at 594 nm.

[2] = target: Endonuclease 8-like 1 (Homo sapiens) (UniProt Q96FI4); settings: Hit No;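 further: fluorescence at 594 nm from quenched duplex DNA oligonucleotides released by NEIL1 cleavage and strand separation, reported as reduction of this enzyme activity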
Description: Inhibition of NEIL1 by quantifying inhibition of NEIL1-mediated cleavage and dissociation of quenched duplex DNA oligonucleotides, measured as fluorescence at 594 nm.

[3] = target: T2, Endonuclease III-like protein 1 (Homo sapiens) (UniProt P78549); settings: Compound Concentration 10.0 uM, Hit No;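 further: enzyme assay tracking NTHL1 cutting and release of a quenched double-stranded DNA oligo substrate, read as fluorescence at 594 nm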
T2 sequence (whole entry): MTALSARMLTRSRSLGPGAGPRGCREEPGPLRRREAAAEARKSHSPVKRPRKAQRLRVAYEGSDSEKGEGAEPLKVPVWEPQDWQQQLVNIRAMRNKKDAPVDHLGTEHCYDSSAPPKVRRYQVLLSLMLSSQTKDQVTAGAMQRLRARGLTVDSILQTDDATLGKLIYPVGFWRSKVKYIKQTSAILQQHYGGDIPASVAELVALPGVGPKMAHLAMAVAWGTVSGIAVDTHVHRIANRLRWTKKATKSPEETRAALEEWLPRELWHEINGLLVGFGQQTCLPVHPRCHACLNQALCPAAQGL
Description: Inhibition of NTHL1 by quantifying inhibition of NTHL1-mediated cleavage and dissociation of quenched duplex DNA oligonucleotides, measured as fluorescence at 594 nm.

[4] = target: N-glycosylase/DNA lyase (Homo sapiens) (UniProt O15527); settings: Hit No;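 further: OGG1 cleavage of a quenched duplex DNA oligonucleotide, coupled to APE1 for strand incision, read as fluorescence at 594 nm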
Description: Inhibition of OGG1 by quantifying inhibition of OGG1-mediated cleavage and dissociation of quenched duplex DNA oligonucleotides, measured as fluorescence at 594 nm. To generate a functional strand incision and increase turn-over this assay is coupled to APE1.

[5] = target: T3, Single-strand selective monofunctional uracil DNA glycosylase (Homo sapiens) (UniProt Q53HV7); settings: Hit No;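 further: enzymatic SMUG1 assay coupled with APE1, reading fluorescence at 594 nm released when a quenched double-stranded DNA oligonucleotide substrate is cleaved and separated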
T3 sequence (whole entry): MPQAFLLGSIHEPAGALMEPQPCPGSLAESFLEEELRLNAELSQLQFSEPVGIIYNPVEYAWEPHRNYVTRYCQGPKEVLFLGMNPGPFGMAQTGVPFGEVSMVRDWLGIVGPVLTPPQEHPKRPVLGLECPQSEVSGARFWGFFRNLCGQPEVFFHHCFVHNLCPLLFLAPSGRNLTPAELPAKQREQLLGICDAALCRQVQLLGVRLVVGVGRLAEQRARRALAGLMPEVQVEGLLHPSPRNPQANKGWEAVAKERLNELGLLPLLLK
Description: Inhibition of SMUG1 by quantifying inhibition of SMUG1-mediated cleavage and dissociation of quenched duplex DNA oligonucleotides, measured as fluorescence at 594 nm. To generate a functional strand incision and increase turn-over this assay is coupled to APE1.

[6] = target: G/T mismatch-specific thymine DNA glycosylase (Homo sapiens) (UniProt Q13569); settings: Hit No;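 further: human TDG cleavage of quenched duplex DNA oligonucleotides coupled to APE1, strand release read as fluorescence at 594 nm, inhibition of TDG activity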
Description: Inhibition of TDG by quantifying inhibition of TDG-mediated cleavage and dissociation of quenched duplex DNA oligonucleotides, measured as fluorescence at 594 nm. To generate a functional strand incision and increase turn-over this assay is coupled to APE1.

[7] = target: Methyl-CpG-binding domain protein 4 (Homo sapiens) (UniProt O95243); settings: Hit No;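 further: MBD4 activity read as fluorescence at 594 nm from cleavage and release of a quenched duplex DNA oligonucleotide, with APE1 coupled to incise the strand and raise turnover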
Description: Inhibition of MBD4 by quantifying inhibition of MBD4-mediated cleavage and dissociation of quenched duplex DNA oligonucleotides, measured as fluorescence at 594 nm. To generate a functional strand incision and increase turn-over this assay is coupled to APE1.

[8] = target: Uracil-DNA glycosylase (Homo sapiens) (UniProt P13051); settings: Hit No;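 further: UNG excision on a quenched double-stranded DNA oligo probe, with APE1 added for strand incision and turnover, read as fluorescence at 594 nm as strands separate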
Sequence of Uracil-DNA glycosylase (Homo sapiens) (P13051 whole entry): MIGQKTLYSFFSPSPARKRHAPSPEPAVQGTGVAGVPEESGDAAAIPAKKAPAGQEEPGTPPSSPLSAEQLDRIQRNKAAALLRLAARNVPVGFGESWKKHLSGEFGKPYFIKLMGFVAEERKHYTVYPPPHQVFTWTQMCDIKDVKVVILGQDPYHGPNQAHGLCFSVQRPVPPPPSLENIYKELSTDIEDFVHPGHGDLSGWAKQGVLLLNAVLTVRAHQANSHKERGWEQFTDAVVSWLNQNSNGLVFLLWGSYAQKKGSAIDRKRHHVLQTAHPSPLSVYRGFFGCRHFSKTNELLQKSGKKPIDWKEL
Description: Inhibition of UNG by quantifying inhibition of UNG-mediated cleavage and dissociation of quenched duplex DNA oligonucleotides, measured as fluorescence at 594 nm. To generate a functional strand incision and increase turn-over this assay is coupled to APE1.

Sequence of Methyl-CpG-binding domain protein 4 (Homo sapiens) (O95243 whole entry, the tested form may be a part): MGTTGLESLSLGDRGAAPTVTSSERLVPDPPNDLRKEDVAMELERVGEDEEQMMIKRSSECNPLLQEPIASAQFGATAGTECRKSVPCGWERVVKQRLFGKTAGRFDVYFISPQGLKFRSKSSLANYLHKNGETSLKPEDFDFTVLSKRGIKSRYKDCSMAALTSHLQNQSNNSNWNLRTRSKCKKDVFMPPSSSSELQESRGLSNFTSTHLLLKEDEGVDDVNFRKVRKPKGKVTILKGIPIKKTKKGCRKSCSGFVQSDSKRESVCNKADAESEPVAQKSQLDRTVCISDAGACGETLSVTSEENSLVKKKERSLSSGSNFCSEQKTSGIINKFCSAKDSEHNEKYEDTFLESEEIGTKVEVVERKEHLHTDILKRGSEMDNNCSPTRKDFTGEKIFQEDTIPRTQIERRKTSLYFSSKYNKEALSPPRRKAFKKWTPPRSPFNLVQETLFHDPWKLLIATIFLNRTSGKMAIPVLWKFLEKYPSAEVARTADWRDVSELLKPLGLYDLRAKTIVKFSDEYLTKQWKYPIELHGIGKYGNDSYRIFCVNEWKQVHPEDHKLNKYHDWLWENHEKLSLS
Sequence of N-glycosylase/DNA lyase (Homo sapiens) (O15527 whole entry): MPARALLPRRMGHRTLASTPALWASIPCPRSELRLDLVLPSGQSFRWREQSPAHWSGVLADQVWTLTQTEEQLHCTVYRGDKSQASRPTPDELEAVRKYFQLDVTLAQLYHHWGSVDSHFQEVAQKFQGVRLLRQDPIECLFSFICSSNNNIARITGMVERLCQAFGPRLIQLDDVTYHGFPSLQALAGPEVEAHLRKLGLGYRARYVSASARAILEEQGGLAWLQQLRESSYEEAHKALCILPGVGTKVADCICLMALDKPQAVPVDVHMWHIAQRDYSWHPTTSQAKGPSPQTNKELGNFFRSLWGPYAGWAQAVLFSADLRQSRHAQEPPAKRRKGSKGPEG
Sequence of Endonuclease 8-like 1 (Homo sapiens) (Q96FI4 whole entry): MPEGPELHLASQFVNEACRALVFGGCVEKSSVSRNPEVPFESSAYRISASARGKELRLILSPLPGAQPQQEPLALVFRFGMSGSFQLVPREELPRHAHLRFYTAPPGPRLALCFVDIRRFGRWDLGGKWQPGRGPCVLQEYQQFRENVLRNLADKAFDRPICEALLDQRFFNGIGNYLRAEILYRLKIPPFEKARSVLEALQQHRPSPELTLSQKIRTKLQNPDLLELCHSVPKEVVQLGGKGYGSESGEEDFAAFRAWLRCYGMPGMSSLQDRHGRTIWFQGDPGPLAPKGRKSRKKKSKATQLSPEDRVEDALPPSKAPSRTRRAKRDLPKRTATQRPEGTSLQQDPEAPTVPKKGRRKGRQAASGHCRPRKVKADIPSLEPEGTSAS
Sequence of G/T mismatch-specific thymine DNA glycosylase (Homo sapiens) (Q13569 whole entry, the tested form may be a part): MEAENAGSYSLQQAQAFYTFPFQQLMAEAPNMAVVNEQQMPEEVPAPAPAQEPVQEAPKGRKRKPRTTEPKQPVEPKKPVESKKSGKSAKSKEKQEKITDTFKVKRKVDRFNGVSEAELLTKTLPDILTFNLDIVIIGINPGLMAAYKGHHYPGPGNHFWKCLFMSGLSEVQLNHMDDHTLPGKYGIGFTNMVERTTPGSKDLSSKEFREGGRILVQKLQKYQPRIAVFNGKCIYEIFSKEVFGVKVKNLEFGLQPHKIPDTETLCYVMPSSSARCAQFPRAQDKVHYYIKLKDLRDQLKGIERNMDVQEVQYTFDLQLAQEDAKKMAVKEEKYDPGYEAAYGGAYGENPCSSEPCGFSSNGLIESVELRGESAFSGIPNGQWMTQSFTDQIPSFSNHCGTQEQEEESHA

Structure (SMILES) | inhibition ([1]; Compound Concentration 10.0 uM) [%] | inhibition ([2]; Compound Concentration 10.0 uM) [%] | inhibition [3] [%] | inhibition ([4]; Compound Concentration 1.0 uM) [%] | inhibition ([1]; Compound Concentration 1.0 uM) [%] | inhibition ([5]; Compound Concentration 1.0 uM) [%] | inhibition ([2]; Compound Concentration 1.0 uM) [%] | inhibition ([6]; Compound Concentration 1.0 uM) [%] | inhibition ([7]; Compound Concentration 1.0 uM) [%] | inhibition ([8]; Compound Concentration 1.0 uM) [%] | inhibition ([4]; Compound Concentration 10.0 uM) [%] | inhibition ([5]; Compound Concentration 10.0 uM) [%] | inhibition ([6]; Compound Concentration 10.0 uM) [%] | inhibition ([7]; Compound Concentration 10.0 uM) [%] | inhibition ([8]; Compound Concentration 10.0 uM) [%]
O=c1[nH]c(=O)c2nc3ccccc3nc2[nH]1 | 5.26 | 4.1 | 14.4 |  |  |  |  |  |  |  |  |  |  |  | 
Oc1c(CN2CCN(c3ccccn3)CC2)cc(Cl)c2cccnc12 | 7.5 | -9.54 | 39.3 |  |  |  |  |  |  |  |  |  |  |  | 
C[C@@H](c1cccc(C#N)c1)n1cc(Cl)cc(C(N)=O)c1=N | 12 | -4.99 |  |  |  |  |  |  |  |  | 1.26 | 9.26 | 46.5 | 67 | 3.37
CC(C)Oc1ccc(-c2nc(-c3cccc4c3CC[C@@H]4NCCO)no2)cc1C#N | 5.51 | -0.352 | 1.19 |  |  |  |  |  |  |  |  |  | -9.98 |  | 
CCCCCCOc1cc2n(c(=O)n1)CCc1cc(OC)c(OC)cc1-2 | -5.45 | 1.64 | -4.39 |  |  |  |  |  |  |  |  |  |  |  | 
CC(C=CC1=C(C)CCCC1(C)C)=CC=CC(C)=CC(=O)O | -4.83 |  |  |  |  |  |  |  |  |  | 83.6 | 8.2 | 96.3 | 57.7 | -0.014
CCNC(=O)c1cc2c(N3CCOCC3C)ccnc2[nH]1 (stereo not drawn) | -7.12 |  |  |  |  |  |  |  |  |  | -6.36 | 15.1 | 58.1 | 52.5 | -3.94
O=C(NCCN1CCOCC1)c1ccc2c(c1)C(=O)c1ccc(Nc3ccc(F)c(NC(=O)c4ccccc4)c3)cc1CC2 | -4.66 | -5.6 | 0.366 |  |  |  |  |  |  |  |  |  |  |  | 
Cc1ccc2[nH]c(CNCCCc3ccncc3)cc(=O)c2c1 | -5.59 | -2.56 |  |  |  |  |  |  |  |  | 5.93 | 7.47 | 35.6 | 56.8 | -0.701
CN1CCN(c2ccc(/C=C(\C#N)c3ccccc3Br)cc2)CC1 | -0.489 | -2.11 |  |  |  |  |  |  |  |  | 25.6 | 7.83 | 42.1 | 55.3 | 4.48
CC(=O)C1=C(C)N(c2cccc(C(F)(F)F)c2)C(=O)N[C@@H]1c1ccc(C#N)nc1 | 3.85 |  |  |  |  |  |  |  |  |  | -1.15 | -3.19 | 45.6 | 51.4 | 2.25
CCC[C@H]1CNCc2c1[nH]c(=O)c(C#N)c2N1CCC2(CC1)CC2 | -0.999 | 9.71 |  |  |  |  |  |  |  |  | 2.34 | 6.33 | 100 | 58.5 | 0.94
CN1C(=O)c2sccc2N(C)c2nc(Nc3ccc(S(N)(=O)=O)cc3)ncc21 |  |  |  | 5.53 | -6.76 | 9.9 | -7.66 | 40.8 | 27.4 | -4.58 |  |  |  |  | 
CCC(F)(F)c1cc(N2CCC(S(C)(=O)=O)CC2)nc2sc(C(N)=O)c(N)c12 | -1.2 | -3.46 |  |  |  |  |  |  |  |  | -8.21 | 8.86 | 39.1 | 38.2 | 3.95
Cn1ncc2c(-c3c(-c4ccc(F)cn4)nn4c3COC(C)(C)C4)ccnc21 | -5.34 |  |  |  |  |  |  |  |  |  | -1.93 | 3.56 | 99.5 | 50.1 | 1.59
Cc1noc([C@H]2C[C@@H](c3ccc(C(F)(F)F)cc3)CN(C(=O)N3CCS(=O)(=O)C3)C2)n1 | -5.59 |  |  |  |  |  |  |  |  |  | 1.56 | 5.39 | 53.6 | 42.2 | -0.51

The remaining lines, values ahead:

inhibition ([1]; Compound Concentration 10.0 uM) [%] | inhibition ([2]; Compound Concentration 10.0 uM) [%] | inhibition [3] [%] | inhibition ([4]; Compound Concentration 1.0 uM) [%] | inhibition ([1]; Compound Concentration 1.0 uM) [%] | inhibition ([5]; Compound Concentration 1.0 uM) [%] | inhibition ([2]; Compound Concentration 1.0 uM) [%] | inhibition ([6]; Compound Concentration 1.0 uM) [%] | inhibition ([7]; Compound Concentration 1.0 uM) [%] | inhibition ([8]; Compound Concentration 1.0 uM) [%] | inhibition ([4]; Compound Concentration 10.0 uM) [%] | inhibition ([5]; Compound Concentration 10.0 uM) [%] | inhibition ([6]; Compound Concentration 10.0 uM) [%] | inhibition ([7]; Compound Concentration 10.0 uM) [%] | inhibition ([8]; Compound Concentration 10.0 uM) [%] | Structure (SMILES)
 |  |  | 10.1 | 1.55 | 8.77 | -5.44 | 52 | 59 | 0.0471 |  |  |  |  |  | Cc1c(Oc2ccc(F)cc2)c(OC(C)C)nn1-c1ccc(C2CC2)cn1
 |  |  | -3.07 | -5.34 | 3.93 | -9.68 | 48.4 | 71 | -3.31 |  |  |  |  |  | O=C(Nc1ccc(Oc2ccc(F)cc2)cc1)N1CCc2ncccc2[C@H]1c1ccc(F)cc1
 |  |  | -4.88 | -2.53 | 4.5 | 0.467 | 50.2 | 76.6 | -0.296 |  |  |  |  |  | COc1ccc2cc(OCC3(C(=O)O)CN(C(=O)c4ccc(F)cc4)C3)ccc2c1
-3.04 |  |  |  |  |  |  |  |  |  | -7.44 | 6.94 | 49.8 | 70.5 | -4.47 | O=C(Nc1cnc(Oc2ccc(F)cc2)nc1)N1CCc2ncccc2[C@@H]1c1ccc(F)cc1
 |  |  | -0.705 | 0.0213 | 6.65 | -4.23 | 50.4 | 64.7 | -0.0979 |  |  |  |  |  | CS(=O)(=O)NCC[C@H](NC(=O)c1cncc2c1cnn2-c1ccc(F)cc1)c1ccnc(S(C)(=O)=O)c1
 |  |  | 12.5 | -2.53 | 18.6 | -1.5 | 99.5 | 56 | -0.0979 |  |  |  |  |  | COc1cccc(CNC(=O)c2nc3scc(COCc4ccc(C(=O)O)cc4)c3c(=O)[nH]2)c1
 |  |  | 5.43 | -5.96 | 22.7 | 3.44 | 37.8 | -2.92 | 1.38 |  |  |  |  |  | C[C@@H]1CCNC(=O)c2cc3ccc(C(=O)Nc4nc5ccccc5n4CCCN(C)C)cc3n21
30.2 | 9.88 | -6.14 |  |  |  |  |  |  |  |  |  |  |  |  | Cc1c(Cc2ccc3ccccc3n2)c2cc(F)ccc2n1CC(=O)O
-5.34 | 0.164 |  |  |  |  |  |  |  |  | 0.279 | -8.88 | 46.4 | 56.1 | 0.131 | CC[C@H](CC(=O)O)n1c(=O)c2ncccc2n(Cc2cn(C)c3cc(C)cc(C)c23)c1=O
2.57 | 1.22 |  |  |  |  |  |  |  |  | 1.07 | 12 | 76.8 | 15.6 | -2.04 | Clc1ccc(-c2nc3sccn3c2/C=N/OCc2ccc(Cl)c(Cl)c2)cc1
